What was measured:
[1] = target: Receptor-type tyrosine-protein phosphatase beta (Homo sapiens, UniProt P23467); assay: Inhibition of recombinant human PTPbeta using DiFMUP as substrate preincubated for 10 mins followed by substrate addition and measured after 2 hrs
[2] = target: T1, Tyrosine-protein phosphatase non-receptor type 1 (Homo sapiens, UniProt P18031); assay: Inhibition of recombinant PTP1B (unknown origin)
T1 sequence (P18031 whole entry): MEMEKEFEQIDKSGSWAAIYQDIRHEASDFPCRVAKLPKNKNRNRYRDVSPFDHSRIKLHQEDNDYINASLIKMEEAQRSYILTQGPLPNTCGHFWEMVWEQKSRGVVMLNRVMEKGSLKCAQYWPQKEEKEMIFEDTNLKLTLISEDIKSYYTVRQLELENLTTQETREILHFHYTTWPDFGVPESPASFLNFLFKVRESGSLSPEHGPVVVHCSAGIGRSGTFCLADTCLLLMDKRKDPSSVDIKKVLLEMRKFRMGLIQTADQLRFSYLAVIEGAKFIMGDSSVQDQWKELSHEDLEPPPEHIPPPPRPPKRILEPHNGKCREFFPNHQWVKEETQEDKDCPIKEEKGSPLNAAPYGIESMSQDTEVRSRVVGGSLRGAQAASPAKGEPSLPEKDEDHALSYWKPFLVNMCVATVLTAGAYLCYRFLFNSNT

[3] = target: T2, Tyrosine-protein phosphatase non-receptor type 11 (Homo sapiens, UniProt Q06124); assay: Inhibition of recombinant SHP2 (unknown origin)
T2 sequence (Q06124 whole entry): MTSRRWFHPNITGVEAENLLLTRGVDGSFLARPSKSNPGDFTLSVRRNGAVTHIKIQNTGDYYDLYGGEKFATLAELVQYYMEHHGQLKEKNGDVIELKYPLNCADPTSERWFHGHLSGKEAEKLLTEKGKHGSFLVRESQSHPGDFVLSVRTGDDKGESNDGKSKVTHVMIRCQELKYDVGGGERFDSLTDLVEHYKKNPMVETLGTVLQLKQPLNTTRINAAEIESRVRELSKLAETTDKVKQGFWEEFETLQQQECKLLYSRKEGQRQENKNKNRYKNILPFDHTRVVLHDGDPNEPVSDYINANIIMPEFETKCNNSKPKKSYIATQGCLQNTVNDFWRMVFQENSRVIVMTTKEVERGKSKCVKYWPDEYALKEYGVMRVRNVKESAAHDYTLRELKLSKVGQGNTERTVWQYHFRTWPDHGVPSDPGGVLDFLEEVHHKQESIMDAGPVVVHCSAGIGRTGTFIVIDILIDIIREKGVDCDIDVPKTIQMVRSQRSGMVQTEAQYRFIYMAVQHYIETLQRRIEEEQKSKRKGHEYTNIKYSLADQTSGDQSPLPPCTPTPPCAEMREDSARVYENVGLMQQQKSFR

[4] = target: T3, Tyrosine-protein phosphatase non-receptor type 2 (Homo sapiens, UniProt P17706); assay: Inhibition of recombinant TC-PTP (unknown origin)
T3 sequence (P17706 whole entry): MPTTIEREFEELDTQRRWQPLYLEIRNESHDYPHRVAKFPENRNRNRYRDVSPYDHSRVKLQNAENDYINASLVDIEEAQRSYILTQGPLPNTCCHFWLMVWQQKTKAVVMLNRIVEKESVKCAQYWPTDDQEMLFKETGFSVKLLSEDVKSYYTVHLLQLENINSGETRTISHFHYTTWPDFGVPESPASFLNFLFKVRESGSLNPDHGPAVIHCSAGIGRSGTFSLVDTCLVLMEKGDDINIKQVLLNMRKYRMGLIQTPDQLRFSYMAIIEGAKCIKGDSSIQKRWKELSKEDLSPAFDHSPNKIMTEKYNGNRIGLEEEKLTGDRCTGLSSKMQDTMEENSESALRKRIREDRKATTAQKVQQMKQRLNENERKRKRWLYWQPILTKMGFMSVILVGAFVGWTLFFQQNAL

[5] = target: Receptor-type tyrosine-protein phosphatase F (Homo sapiens, UniProt P10586); assay: Inhibition of recombinant LAR (unknown origin)
Chain of Receptor-type tyrosine-protein phosphatase F (P10586 whole entry): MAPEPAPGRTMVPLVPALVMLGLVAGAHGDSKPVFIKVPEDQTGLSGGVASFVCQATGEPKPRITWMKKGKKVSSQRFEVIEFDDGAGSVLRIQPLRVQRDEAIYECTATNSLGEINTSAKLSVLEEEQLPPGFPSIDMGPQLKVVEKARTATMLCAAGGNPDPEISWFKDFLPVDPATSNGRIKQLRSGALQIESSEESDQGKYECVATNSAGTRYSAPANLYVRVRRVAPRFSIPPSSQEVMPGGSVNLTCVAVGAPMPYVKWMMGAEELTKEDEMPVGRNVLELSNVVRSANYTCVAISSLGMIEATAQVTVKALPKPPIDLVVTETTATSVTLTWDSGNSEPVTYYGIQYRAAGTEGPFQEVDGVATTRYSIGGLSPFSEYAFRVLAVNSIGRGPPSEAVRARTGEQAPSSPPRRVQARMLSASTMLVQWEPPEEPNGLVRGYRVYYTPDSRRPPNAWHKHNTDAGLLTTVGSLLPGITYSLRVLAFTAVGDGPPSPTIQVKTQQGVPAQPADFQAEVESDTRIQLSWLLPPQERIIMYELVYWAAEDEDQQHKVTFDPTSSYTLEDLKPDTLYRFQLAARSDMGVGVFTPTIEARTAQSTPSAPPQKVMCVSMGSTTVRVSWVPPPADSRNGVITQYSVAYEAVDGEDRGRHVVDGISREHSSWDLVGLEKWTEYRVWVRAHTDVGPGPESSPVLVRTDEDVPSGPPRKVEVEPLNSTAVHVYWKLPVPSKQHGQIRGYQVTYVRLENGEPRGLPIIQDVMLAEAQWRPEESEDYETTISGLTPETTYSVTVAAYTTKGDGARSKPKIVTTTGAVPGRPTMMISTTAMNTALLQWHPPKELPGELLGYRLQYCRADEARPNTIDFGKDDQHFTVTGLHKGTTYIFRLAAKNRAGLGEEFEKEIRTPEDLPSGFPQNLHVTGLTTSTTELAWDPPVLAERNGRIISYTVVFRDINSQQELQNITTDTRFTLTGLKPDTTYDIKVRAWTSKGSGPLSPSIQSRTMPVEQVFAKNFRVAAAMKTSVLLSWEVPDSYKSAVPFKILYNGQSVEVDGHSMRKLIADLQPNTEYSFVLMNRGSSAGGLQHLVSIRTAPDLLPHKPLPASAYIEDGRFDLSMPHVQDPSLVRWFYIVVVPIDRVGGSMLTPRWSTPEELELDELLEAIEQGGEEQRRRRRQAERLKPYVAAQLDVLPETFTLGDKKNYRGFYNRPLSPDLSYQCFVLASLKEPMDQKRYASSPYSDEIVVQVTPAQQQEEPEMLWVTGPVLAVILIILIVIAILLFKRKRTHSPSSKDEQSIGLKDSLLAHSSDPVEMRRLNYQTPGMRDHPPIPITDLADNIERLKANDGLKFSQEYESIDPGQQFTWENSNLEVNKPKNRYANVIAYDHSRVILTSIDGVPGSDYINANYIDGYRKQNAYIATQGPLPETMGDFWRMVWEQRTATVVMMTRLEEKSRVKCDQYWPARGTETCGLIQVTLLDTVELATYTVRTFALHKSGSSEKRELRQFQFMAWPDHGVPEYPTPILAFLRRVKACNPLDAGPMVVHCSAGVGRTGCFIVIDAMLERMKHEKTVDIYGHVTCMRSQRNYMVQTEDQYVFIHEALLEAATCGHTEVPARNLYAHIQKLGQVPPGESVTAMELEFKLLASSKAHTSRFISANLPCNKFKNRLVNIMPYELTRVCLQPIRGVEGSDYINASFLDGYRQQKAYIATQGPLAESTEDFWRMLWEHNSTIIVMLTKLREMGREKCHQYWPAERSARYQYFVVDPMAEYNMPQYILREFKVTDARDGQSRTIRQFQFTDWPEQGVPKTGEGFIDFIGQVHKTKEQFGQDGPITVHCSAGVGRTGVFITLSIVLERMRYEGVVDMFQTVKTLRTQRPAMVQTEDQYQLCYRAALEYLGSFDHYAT

Chain of Receptor-type tyrosine-protein phosphatase beta (P23467 whole entry): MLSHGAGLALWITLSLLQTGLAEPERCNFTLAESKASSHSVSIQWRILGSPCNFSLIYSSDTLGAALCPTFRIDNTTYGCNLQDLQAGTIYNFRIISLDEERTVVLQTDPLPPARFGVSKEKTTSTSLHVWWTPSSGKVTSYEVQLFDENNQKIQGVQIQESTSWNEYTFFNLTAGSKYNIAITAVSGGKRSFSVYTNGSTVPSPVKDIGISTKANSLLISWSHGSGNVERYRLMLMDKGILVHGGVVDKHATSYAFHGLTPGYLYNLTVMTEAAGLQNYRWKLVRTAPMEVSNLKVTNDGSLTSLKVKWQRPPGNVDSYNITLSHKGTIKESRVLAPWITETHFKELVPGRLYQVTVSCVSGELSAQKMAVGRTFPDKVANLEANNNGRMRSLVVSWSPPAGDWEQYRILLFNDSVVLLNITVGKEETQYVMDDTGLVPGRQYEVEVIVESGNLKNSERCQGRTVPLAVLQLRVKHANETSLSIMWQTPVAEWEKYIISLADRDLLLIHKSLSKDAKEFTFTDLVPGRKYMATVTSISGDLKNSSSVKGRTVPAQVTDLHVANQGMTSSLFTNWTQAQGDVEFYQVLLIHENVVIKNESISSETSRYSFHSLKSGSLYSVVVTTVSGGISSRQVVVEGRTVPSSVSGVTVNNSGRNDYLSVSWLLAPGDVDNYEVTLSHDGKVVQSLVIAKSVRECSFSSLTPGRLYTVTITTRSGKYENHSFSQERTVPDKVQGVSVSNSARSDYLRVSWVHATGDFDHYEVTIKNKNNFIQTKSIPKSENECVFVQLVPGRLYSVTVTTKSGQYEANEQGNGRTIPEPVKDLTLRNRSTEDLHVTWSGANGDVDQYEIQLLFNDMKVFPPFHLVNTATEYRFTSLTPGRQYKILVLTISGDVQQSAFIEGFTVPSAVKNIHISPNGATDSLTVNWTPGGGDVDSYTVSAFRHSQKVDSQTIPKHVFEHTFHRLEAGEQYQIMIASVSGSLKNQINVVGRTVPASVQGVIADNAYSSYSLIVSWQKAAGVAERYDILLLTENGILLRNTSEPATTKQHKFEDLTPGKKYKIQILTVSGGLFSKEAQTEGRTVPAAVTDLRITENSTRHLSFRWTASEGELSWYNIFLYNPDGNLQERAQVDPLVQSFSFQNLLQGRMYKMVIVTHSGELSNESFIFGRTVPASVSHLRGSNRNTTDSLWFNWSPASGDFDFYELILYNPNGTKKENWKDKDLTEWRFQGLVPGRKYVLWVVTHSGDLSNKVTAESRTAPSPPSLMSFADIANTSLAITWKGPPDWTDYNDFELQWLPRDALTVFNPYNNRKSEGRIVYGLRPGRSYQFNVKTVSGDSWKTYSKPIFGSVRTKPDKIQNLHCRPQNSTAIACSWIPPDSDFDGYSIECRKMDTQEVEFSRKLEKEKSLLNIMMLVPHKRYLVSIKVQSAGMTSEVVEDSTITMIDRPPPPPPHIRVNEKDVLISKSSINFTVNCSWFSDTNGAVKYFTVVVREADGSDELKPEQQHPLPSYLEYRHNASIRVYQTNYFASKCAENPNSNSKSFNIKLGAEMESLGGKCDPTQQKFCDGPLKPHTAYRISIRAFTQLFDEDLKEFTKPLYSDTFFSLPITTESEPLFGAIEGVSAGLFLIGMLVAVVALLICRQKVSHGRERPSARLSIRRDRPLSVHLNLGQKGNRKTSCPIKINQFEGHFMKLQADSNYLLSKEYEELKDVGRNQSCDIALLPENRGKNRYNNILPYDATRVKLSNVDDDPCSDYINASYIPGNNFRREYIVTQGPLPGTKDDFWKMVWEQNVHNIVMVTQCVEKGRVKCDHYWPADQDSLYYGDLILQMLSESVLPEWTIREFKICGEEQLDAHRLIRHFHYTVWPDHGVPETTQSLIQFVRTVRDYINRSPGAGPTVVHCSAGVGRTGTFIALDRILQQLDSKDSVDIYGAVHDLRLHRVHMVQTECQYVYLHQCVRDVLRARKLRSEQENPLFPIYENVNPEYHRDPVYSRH

| IC50 [1] [nM] | IC50 [2] [µM] | IC50 [3] [µM] | IC50 [4] [µM] | IC50 [5] [µM] | Structure (SMILES) |
| --- | --- | --- | --- | --- | --- |
| 2070 | – | – | – | – | COc1ccc(S(=O)(=O)N(Cc2ccc(NS(=O)(=O)O)cc2)c2nc(-c3ccccc3)cs2)cc1 |
| 1070 | – | – | – | – | O=S(=O)(O)Nc1ccc(CN(c2nc(-c3cccs3)cs2)S(=O)(=O)c2cccc(F)c2)cc1 |
| 3460 | – | – | – | – | COC(=O)N[C@@H](Cc1ccccc1)C(=O)N(Cc1ccc(NS(=O)(=O)O)cc1)c1nc(-c2ccccc2)cs1 |
| 1780 | – | – | – | – | O=C(Cc1ccc(Br)c(F)c1)N(Cc1ccc(NS(=O)(=O)O)cc1)c1ccccc1 |
| 968 | 20.5 | 6.41 | 31.3 | 34.8 | COc1cccc(S(=O)(=O)N(Cc2ccc(NS(=O)(=O)O)cc2)c2nc(-c3ccccc3)cs2)c1 |
| 1810 | – | – | – | – | COc1ccc(S(=O)(=O)N(Cc2ccc(NS(=O)(=O)O)cc2)c2nc(-c3cccs3)cs2)cc1 |
| 1410 | – | – | – | – | COc1cccc(S(=O)(=O)N(Cc2ccc(NS(=O)(=O)O)cc2)c2nc(-c3cccs3)cs2)c1 |
| 6610 | – | – | – | – | COC(=O)N[C@@H](Cc1ccccc1)C(=O)N(Cc1ccc(NS(=O)(=O)O)cc1)c1nc(-c2cccs2)cs1 |
| 1720 | – | – | – | – | O=C(Cc1cccc(F)c1)N(Cc1ccc(NS(=O)(=O)O)cc1)c1ccccc1 |
| 1450 | 123 | 24.7 | 102 | 112 | CC(C)(C)OC(=O)N1CCC(C(=O)N(Cc2ccc(NS(=O)(=O)O)cc2)c2ccccc2)CC1 |
| 3420 | – | – | – | – | COC(=O)N[C@@H](Cc1ccccc1)C(=O)N(Cc1ccc(NS(=O)(=O)O)cc1)c1ccccc1 |
| 4100 | – | – | – | – | O=C(Cc1cccc(F)c1)N(Cc1ccc(NS(=O)(=O)O)cc1)c1nc(-c2ccccc2)cs1 |
| – | 15.7 | 55.3 | 20.1 | 76.4 | O=[N+]([O-])c1ccc(CNc2ccccc2)cc1 |
| 1680 | – | – | – | – | O=C(COc1ccc(Cl)cc1Cl)N(Cc1ccc(NS(=O)(=O)O)cc1)c1ccccc1 |
| 1750 | – | – | – | – | O=S(=O)(O)Nc1ccc(CN(c2nc(-c3cccs3)cs2)S(=O)(=O)c2cccc(Cl)c2)cc1 |
| 6400 | – | – | – | – | CC(C)(C)OC(=O)N1CCC(C(=O)N(Cc2ccc(NS(=O)(=O)O)cc2)c2nc(-c3ccccc3)cs2)CC1 |
| 2980 | 22.2 | 19.6 | 32.8 | 42.3 | O=C(c1cccnc1Cl)N(Cc1ccc(NS(=O)(=O)O)cc1)c1nc(-c2ccccc2)cs1 |
| 5940 | – | – | – | – | O=C(c1ccccc1Cl)N(Cc1ccc(NS(=O)(=O)O)cc1)c1nc(-c2cccs2)cs1 |
| 995 | > 250 | 25.6 | > 250 | 130 | O=S(=O)(O)Nc1ccc(CNc2nc(-c3cccs3)cs2)cc1 |
| 1320 | – | – | – | – | O=S(=O)(O)Nc1ccc(CN(c2nc(-c3ccccc3)cs2)S(=O)(=O)c2cccc(Cl)c2)cc1 |
| 4670 | – | – | – | – | O=C(c1ccccc1Cl)N(Cc1ccc(NS(=O)(=O)O)cc1)c1nc(-c2ccccc2)cs1 |
| 1240 | – | – | – | – | O=S(=O)(O)Nc1ccc(CN(c2nc(-c3ccccc3)cs2)S(=O)(=O)c2cccc(F)c2)cc1 |
